The supplement of paper PMC10307832

What was measured:
Test in all cases: relative viability (nuclei count vs DMSO), 5 days (fraction); higher = more cells survive
Dasatinib + Alpelisib = compound: Cc1nc(Nc2ncc(C(=O)Nc3c(C)cccc3Cl)s2)cc(N2CCN(CCO)CC2)n1 [Dasatinib] + Cc1nc(NC(=O)N2CCC[C@H]2C(N)=O)sc1-c1ccnc(C(C)(C)C(F)(F)F)c1 [Alpelisib] (partner 2 µM)
How it was run: (§1)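 For relative viability, nuclei counts in treated wells were divided by those in vehicle wells. Lung cancer cell lines had been pin-tool dosed in 1536-well plates the day after seeding and cultured for 5 days, then fixed and stained in one step (final 0.05% Triton X-100, 1% formaldehyde, 1 ug/ml Hoechst) and imaged at 4×. Doses were one drug alone or a fixed anchor-drug dose plus five library-drug doses (not always all listed) in √10 steps, and values are duplicate-plate medians.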

XMD13-2 + OSI-027 = compound: C1CC1C(=O)NC2=NNC3=C2C=CC(=C3)C4=CC(=CC=C4)C(=O)NC5CC5 [XMD13-2] + COc1cccc2cc(-c3nc([C@H]4CC[C@H](C(=O)O)CC4)n4ncnc(N)c34)[nH]c12 [OSI-027] (partner 0.5 µM)
How it was run: as §1

ALW-II-49-7 + Olaparib = compound: Cc1ccc(C(=O)Nc2cccc(C(F)(F)F)c2)cc1Nc1cncc(C(N)=O)c1 [ALW-II-49-7] + O=C(c1cc(Cc2n[nH]c(=O)c3ccccc23)ccc1F)N1CCN(C(=O)C2CC2)CC1 [Olaparib] (partner 8 µM)
How it was run: as §1

Dasatinib + AZD7762 = compound: Cc1nc(Nc2ncc(C(=O)Nc3c(C)cccc3Cl)s2)cc(N2CCN(CCO)CC2)n1 [Dasatinib] + NC(=O)Nc1cc(-c2cccc(F)c2)sc1C(=O)N[C@H]1CCCNC1 [AZD7762] (partner 0.2 µM)
How it was run: as §1

| Cell Line | relative viability (Dasatinib + Alpelisib; first compound 0.005 µM) | relative viability (Dasatinib + Alpelisib; first compound 0.01581 µM) | relative viability (Dasatinib + Alpelisib; first compound 0.05 µM) | relative viability (Dasatinib + Alpelisib; first compound 0.1581 µM) | relative viability (Dasatinib + Alpelisib; first compound 0.5 µM) | relative viability (XMD13-2 + OSI-027; first compound 0.05 µM) | relative viability (XMD13-2 + OSI-027; first compound 0.1581 µM) | relative viability (XMD13-2 + OSI-027; first compound 0.5 µM) | relative viability (XMD13-2 + OSI-027; first compound 1.581 µM) | relative viability (XMD13-2 + OSI-027; first compound 5 µM) | relative viability (ALW-II-49-7 + Olaparib; first compound 0.08 µM) | relative viability (ALW-II-49-7 + Olaparib; first compound 0.253 µM) | relative viability (ALW-II-49-7 + Olaparib; first compound 0.8 µM) | relative viability (ALW-II-49-7 + Olaparib; first compound 2.53 µM) | relative viability (ALW-II-49-7 + Olaparib; first compound 8 µM) | relative viability (Dasatinib + AZD7762; first compound 0.005 µM) | relative viability (Dasatinib + AZD7762; first compound 0.01581 µM) | relative viability (Dasatinib + AZD7762; first compound 0.05 µM) | relative viability (Dasatinib + AZD7762; first compound 0.1581 µM) | relative viability (Dasatinib + AZD7762; first compound 0.5 µM) |
| --- | --- | --- | --- | --- | --- | --- | --- | --- | --- | --- | --- | --- | --- | --- | --- | --- | --- | --- | --- | --- |
| HCC-78 | 0.259 | 0.261 | 0.304 | 0.257 | 0.176 | 0.432 | 0.394 | 0.317 | 0.38 | 0.345 | 1.02 | 0.77 | 0.767 | 0.625 | 0.738 | 0.668 | 0.618 | 0.472 | 0.372 | 0.226 |
| HCC-366 | 0.096 | 0.174 | 0.141 | 0.151 | 0.103 | 1.02 | 0.598 | 1.15 | 0.888 | 0.983 | 0.423 | 0.333 | 0.377 | 0.337 | 0.301 | 0.234 | 0.248 | 0.143 | 0.159 | 0.0931 |
| HCC-827 | 1.01 | 0.737 | 0.757 | 0.374 | 0.123 | 0.911 | 0.747 | 0.708 | 0.753 | 0.675 | 0.624 | 0.625 | 0.59 | 0.542 | 0.59 | 0.215 | 0.176 | 0.127 | 0.114 | 0.146 |
| HOP-62 | 1.27 | 1.02 | 0.838 | 0.679 | 0.272 | 0.998 | 0.896 | 0.783 | 0.895 | 0.792 | 0.162 | 0.378 | 0.595 |  | 0.172 | 0.481 | 0.585 | 0.626 | 0.268 | 0.167 |
| IA-LM | 0.969 | 0.71 | 0.882 | 0.84 | 0.62 |  |  |  |  |  | 0.823 | 0.718 | 0.726 | 0.628 | 0.355 |  |  |  |  |  |
| NCI-H520 | 0.539 | 0.456 | 0.457 | 0.145 | 0.142 | 0.306 | 0.278 | 0.232 | 0.294 | 0.225 | 0.306 | 0.339 | 0.33 | 0.31 | 0.328 |  |  |  |  |  |
| NCI-H522 |  |  |  |  |  | 0.71 | 0.692 | 0.742 | 0.701 | 0.658 | 0.764 | 0.547 | 0.734 | 0.635 | 0.742 | 0.857 | 0.73 | 0.882 | 0.654 | 0.634 |
| NCI-H661 | 0.538 | 0.584 | 0.424 | 0.271 | 0.254 | 0.848 | 0.688 | 0.786 | 0.63 | 0.494 | 0.736 | 0.85 | 0.762 | 0.801 | 0.733 |  |  |  |  |  |
| NCI-H1299 | 1.07 | 1.13 | 1.08 | 0.924 | 0.288 |  |  |  |  |  | 0.94 | 0.972 | 0.988 | 0.73 | 0.761 |  |  |  |  |  |
| NCI-H1563 | 0.742 | 0.615 | 0.662 | 0.608 | 0.604 | 0.811 | 0.731 | 0.74 | 0.788 | 0.751 |  |  |  |  |  |  |  |  |  |  |
| NCI-H1623 |  |  |  |  |  | 0.417 | 0.43 | 0.408 | 0.363 | 0.462 |  |  |  |  |  |  |  |  |  |  |
| NCI-H1648 |  |  |  |  |  | 0.251 | 0.266 | 0.241 | 0.291 | 0.259 | 1.52 | 0.684 | 0.656 | 0.48 | 0.808 | 0.677 | 0.725 | 0.724 | 0.369 | 0.254 |
| NCI-H1650 |  |  |  |  |  | 0.651 | 0.609 | 0.747 | 0.555 | 0.697 | 0.71 | 0.602 | 0.749 | 0.905 | 0.969 |  |  |  |  |  |
| NCI-H1703 | 0.229 | 0.179 | 0.184 | 0.155 | 0.157 |  |  |  |  |  | 0.492 | 0.398 | 0.358 | 0.245 | 0.245 | 0.128 | 0.121 | 0.139 | 0.116 | 0.13 |
| NCI-H2009 | 1.15 | 0.956 | 1.04 | 0.88 | 0.204 | 0.69 | 0.563 | 0.815 | 0.634 | 0.66 | 0.601 | 0.654 | 0.665 | 0.422 | 0.428 |  |  |  |  |  |
| NCI-H2023 | 0.479 | 0.481 | 0.436 | 0.473 | 0.27 | 0.58 | 0.36 | 0.4 | 0.357 | 0.341 | 0.458 | 0.543 | 0.649 | 0.451 | 0.424 |  |  |  |  |  |
| NCI-H2228 | 0.693 | 0.769 | 0.581 | 0.263 | 0.268 | 0.824 | 0.605 | 0.597 | 0.518 | 0.546 | 0.683 | 0.879 | 0.606 | 0.531 | 0.57 |  |  |  |  |  |
| NCI-H2342 |  |  |  |  |  | 0.581 | 0.658 | 0.728 | 0.643 | 0.597 | 0.47 | 0.436 | 0.394 | 0.357 | 0.396 | 0.469 | 0.384 | 0.383 | 0.341 | 0.315 |
| SK-LU-1 | 0.623 | 0.399 | 0.318 | 0.2 | 0.234 | 0.382 | 0.375 | 0.426 | 0.311 | 0.389 | 0.543 | 0.49 | 0.451 |  | 0.362 |  |  |  |  |  |
| SK-MES-1 | 0.991 |  | 0.713 | 0.474 | 0.251 | 0.597 | 0.571 | 0.618 | 0.564 | 0.673 | 0.548 | 0.815 | 0.746 | 0.527 | 0.418 |  |  |  |  |  |
| SW 900 |  |  |  |  |  | 0.654 | 0.707 | 0.686 | 0.457 | 0.635 | 0.652 | 0.759 |  | 0.741 | 0.931 | 0.592 | 0.534 | 0.371 | 0.36 | 0.147 |
| SW 1573 | 0.596 | 0.524 | 0.438 | 0.302 | 0.241 | 0.691 | 0.581 | 0.647 | 0.497 | 0.36 | 0.508 | 0.561 | 0.469 | 0.505 | 0.349 |  |  |  |  |  |
